# Assay results: patent US20240115581A1, “Combination therapy for the treatment or prevention of neurological disorders” (Norwegian University of Science and Technology (NTNU), priority 2022, published 2024)
# Key:
# [1] = system: 3xTg AD mice; test: Quantification of intraneuronal Aβ (Aβ+ neurons) in dSub after drug infusions; assay type: in vivo; conditions: Lonafarnib 80 mg/kg intraventricular, 10 days; young 3xTg AD mice
# Experimental: (§1) In these experiments, a final concentration of 50 mg/kg of Fasudil (10 mM; Selleck Chemicals, Houston, TX, United States) was infused for 14 days in mice and stored at −80° C., whilst a final concentration of 80 mg/kg of Lonafarnib (5 mM; Cayman Chemical, Ann Arbor, MI, United States) was infused for 10 days and stored −20° C. between infusions. […] The same dosages were used during combinatorial infusions of Fasudil and Lonafarnib (administered for a duration of 7 days) in mice (n=4) as the drugs target independent intracellular pathways. All dosages in ml were calculated using; dosage (mg)/concentration (mg/ml)=dose×ml) and were infused at a volume of 60 μl at a rate of 1 μl/min using saline as a control vehicle. […]
# Effect size (Cohen's D) was calculated based on initial experiments between animals infused with Fasudil and animals infused with a vehicle, and the resulting effects on intraneuronal Aβ in dSub. Based on each group consisting of n=2 animals, an effect size of 0.75 was calculated (0.8 is considered a large effect size). […] Behavioral performance in the morphed environments of the context-dependent spatial memory task was calculated as follows: dig in square-consistent location=1, dig in circle-consistent location=0, dig in any other location=0.5. […]
# [2] = system: 3xTg AD mice; test: Quantification of amyloid plaques (number, size) in dSub after intraventricular infusions; assay type: in vivo; conditions: Lonafarnib 80 mg/kg intraventricular, 10 days, 14 months-old 3xTg AD mice
# Experimental: Mice were administered a lethal dose of sodium pentobarbital (100 mg/ml; Apotekforeningen, Oslo, Norway) and transcardially perfused with Ringer's solution followed by paraformaldehyde (PFA, 4%; Sigma-Aldrich) in 125 mM phosphate buffer (PB). Brains were extracted and fixed for a minimum of 24 h in PFA at 4° C. and transferred to a 2% DMSO solution prepared in PB for 24 h at 4° C. Brains were sectioned coronally at 40 μm on a freezing-sliding microtome (Microm HM430, ThermoFisher Scientific, Waltham, MA, United States).
# An incision was made in the non-implanted hemisphere for visualization of the control hemisphere. Immunohistochemical processing was conducted on the tissue. […]
# [3] = system: 3xTg AD mice injected with AAV-tau; test: Quantification of tau+ neurons in LEC layer II after AAV-tau injection and intraventricular infusion; assay type: in vivo; conditions: Lonafarnib 80 mg/kg intraventricular, 10 days; 6 months-old 3xTg AD mice; n.s.
# Experimental: Mice were treated identically to microdialysis guide implantation surgeries, up until deriving stereotaxic coordinates. To target LEC layer II, a craniotomy was made at 0.5 mm anterior to lambda and ˜4 mm lateral (dependent on animal weight) to the midline. A Hamilton microsyringe (Neuros 32-gauge syringe, 5 μl, Hamilton company, Nevada, United States) was lowered vertically into the brain to a depth ˜3.6 mm (dependent on animal weight) from the surface, and 300-1,500 nl of viruses was injected using a microinjector (Nanoliter 2010, World Precision Instruments Inc., United States). We injected the adeno-associated virus (AAV)8 GFP-2a-P301 Ltau (with the chicken beta actin [CBA] promoter; hereafter referred to as AAV-tau). In AAV-tau the short 2A peptide cleaves GFP and human tau during translation at the ribosome. […]
# (§2) In these experiments, a final concentration of 50 mg/kg of Fasudil (10 mM; Selleck Chemicals, Houston, TX, United States) was infused for 14 days in mice and stored at −80° C., whilst a final concentration of 80 mg/kg of Lonafarnib (5 mM; Cayman Chemical, Ann Arbor, MI, United States) was infused for 10 days and stored −20° C. between infusions. […] All dosages in ml were calculated using; dosage (mg)/concentration (mg/ml)=dose×ml) and were infused at a volume of 60 μl at a rate of 1 μl/min using saline as a control vehicle. […]
# [4] = system: 3xTg AD mice; test: Multiplex ELISA of Aβ40, Aβ42, p-tau and t-tau in CSF sampled by push-pull microdialysis; assay type: in vivo; conditions: Lonafarnib, day 10 of infusion, average across younger (injected with AAV-tau) and older mice, vs vehicle
# Experimental: Animals were implanted with microdialysis guide cannulas 2 months following injections. Push-pull microdialysis apparatus and sampling Push-pull microdialysis was conducted as previously described (Bjorkli et al., 2021 supra). A refrigerated fraction collector (CMA 470) was set to 6° C. for the storage of collected CSF in 300 μl low-retention polypropylene plastic vials (Harvard Apparatus, Cambridge, MA, United States). Fluorinated ethylene propylene (FEP) peristaltic tubing (CMA Microdialysis AB, Kista, Sweden) was placed inside each plastic vial for collection and connected to the cassette of the peristaltic roller pump (Reglo ICC Digital). This peristaltic FEP tubing was connected to the outlet side of microdialysis probes (β-irrigated 2 mDa microdialysis probe; CMA 7; CMA Microdialysis AB, Kista, Sweden) with a polyethersulfone 2 mm membrane with tubing adapters bathed in 75% ethanol. FEP tubing (CMA Microdialysis AB, Kista, Sweden) was connected to each microsyringe. The FEP tubing was then connected to the inlet part of the microdialysis probes. Transparent cages were prepared with 1.5 cm of bedding, filled water bottles, and treats. Saline or drugs were loaded inside a gastight microsyringe (CMA Microdialysis AB, Kista, Sweden), which was placed into a syringe pump (CMA 4004). The “dead volume” of the FEP outlet tubing ([…]) was calculated. 100 cm of FEP outlet tubing was used, and therefore the first […] sampled from each animal were discarded. Prior to inserting the microdialysis probes into the guide cannula, the probe was conditioned in 75% ethanol for better recovery of analytes. At the conclusion of microdialyte sampling, the vials of 60 μl CSF were centrifuged and kept at −80° C. until the samples were analyzed with multiplex ELISA.
# as §2
# The MILLIPLEX® MAP human Aβ and tau magnetic bead panel 4-plex ELISA kit (Millipore, Burlington, MA, United States) and the Bio-Plex 200 System instrument (Biorad, Hercules, CA, United States) were used to assess simultaneously the concentrations of Aβ40, Aβ42, total tau (t-tau), and phosphorylated tau at Thr181 (p-tau) in CSF samples. The samples were undiluted and analyzed in duplicates.
# [5] = system: 3xTg AD mice; test: LAMP1 immunolabelling in dSub; assay type: in vivo; conditions: Lonafarnib infused (n=4) vs vehicle (n=8)
# Description: We immunolabelled for lysosomal associated membrane protein 1 (LAMP1) in 3xTg AD mice.
# [6] = system: mice; test: Observation of side-effects during intraventricular drug infusions; assay type: in vivo; conditions: intraventricular infusion: 50 mg/kg Fasudil for 14 days; 80 mg/kg Lonafarnib for 10 days
# Experimental: Fasudil and Lonafarnib have previously been delivered using DMSO, which can damage the BBB and mitochondria as well as cause apoptosis. […] Previous research has shown that ˜98% of all small molecules are not transported across the BBB, whilst other research has shown poor drug transport from CSF to the brain. Taking drug transport across the BBB, and from CSF into the brain parenchyma into consideration, dosages of both 25, 50 and 80 mg/kg were administered in initial pilot experiments.
# as §1
# [7] = cited from earlier work
structure (smiles),measurement,setting,value
"NC(=O)N1CCC(CC(=O)N2CCC([C@H]3c4ncc(Br)cc4CCc4cc(Cl)cc(Br)c43)CC2)CC1 [Lonafarnib, 4-(2-{4-[(11R)-3,10-dibromo-8-chloro-6,11-dihydro-5H-benzo[5,6]cyclohepta[1,2-b]pyridin-11-yl]piperidin-1-yl}-2-oxoethyl)piperidine-1-carboxamide]",number of Aβ+ neurons in dSub,[1],did not affect
same,size of amyloid plaques in dSub compared to vehicle,[2]; n.s.,moderately increased
same,number of dense-core amyloid plaques (overlapping with MC1 immunolabelling) in dSub compared to vehicle infused mice,[2]; p=0.0017,effectively reduced
same,number of tau+ neurons in LEC following injection of AAV-tau,[3],moderately reduced
same,CSF AB42 levels,[4]; n.s.,moderately reduced
same,CSF p-tau levels,[4]; n.s.,moderately reduced
same,CSF Aβ40 levels,[4]; p<0.01,effectively reduced
same,CSF t-tau levels,[4]; p<0.01,effectively reduced
same,LAMP1+ neurons in dSub compared to vehicle infused mice,[5],more prominent
same,observable side-effects,[6],no observable side-effects
same,solubility in aqueous buffers,[7],sparingly soluble
